24 compounds from EP0900211B1 (PHARMACIA & UPJOHN COMPANY, priority 1996, dated 1997) can be followed below.

The structures appear in SMILES notation. Where a name gives a salt, the structure may show the parent alone.

The target of this test is Stromelysin (Homo sapiens, UniProt P08254). The experiment in a line: MMP inhibition, particle concentration fluorescence assay. The settings on record: in vitro; fluorescein/biotin substrate; MMP buffer pH 7.5; room temperature. It is filed as biochemical.
Stromelysin, sequence (P08254 100-477): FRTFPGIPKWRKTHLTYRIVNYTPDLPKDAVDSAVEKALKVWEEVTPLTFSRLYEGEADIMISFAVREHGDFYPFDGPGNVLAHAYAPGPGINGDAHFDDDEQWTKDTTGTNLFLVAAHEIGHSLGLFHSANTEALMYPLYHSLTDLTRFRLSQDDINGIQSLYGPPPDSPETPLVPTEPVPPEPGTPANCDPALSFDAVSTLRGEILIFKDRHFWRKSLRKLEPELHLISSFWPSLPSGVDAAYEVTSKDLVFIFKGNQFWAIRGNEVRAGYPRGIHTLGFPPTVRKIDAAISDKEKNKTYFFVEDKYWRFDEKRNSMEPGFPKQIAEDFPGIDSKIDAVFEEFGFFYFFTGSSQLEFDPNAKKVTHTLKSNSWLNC
Experimental: Inhibitory activity is evaluated in one or more of the MMP enzymes (stromelysin, gelatinase, and collagenase) in vitro using particle concentration fluorescence assay. An inhibitor binds to MMP enzymes which prevents the degradation of a substrate by stromelysin, gelatinase, or collagenase. The substrate has attached to it a fluorescein and a biotin moiety. The intact substrate then binds to an avidin-coated particle via the biotin moiety. Once the particle is washed and dried, a fluorescent signal is generated since the fluorescent group is attached to the particle. Without an inhibitor present, the substrate is degraded by MMP enzymes and the fluorescein group is removed, therefore, no fluorescent signal can be detected. Testing compounds are dissolved in DMSO to the desired concentration, then the solutions are diluted to 1:5 with MMP buffer (50 mM Tris-HCl, pH 7.5; 150 mM NaCl; 0.02% NaN3). Serial two-fold dilutions of each compound are prepared. A concentrated, activated enzyme solution is transferred into each plate of the testing compounds, and the mixture is incubated at room temperature for 15 minutes. […] At this point, the substrate mixture is mixed with 0.1% avidin-coated polystyrene particles. After 15 minutes, the fluorescence values are measured following filtration and washing of the beads. Ki values are then calculated.
For `CCCCNC(=O)[C@H](Cc1ccc([N+](=O)[O-])cc1)NC(=O)Nc1n[nH]c(=S)s1` [Example 35, N-Butyl-α-[[[(4,5-dihydro-5-thioxo-1,3,4-thiadiazol-2-yl)amino]carbonyl]amino]-4-nitro-(S)-benzenepropanamide], the Ki was found to be 350 nM. This counts as sub-micromolar.
Take `O=C(Nc1n[nH]c(=S)s1)N[C@@H](Cc1ccccc1)C(=O)NCCCCc1ccccc1` [Example 37, aα-[[[(4,5-Dihydro-5-thioxo-1,3,4-thiadiazol-2-yl)amino]carbonyl]amino]-N-(4-phenylbutyl)-(S)-benzenepropanamide]: the affinity, expressed as Ki, was 820 nM.
The compound `O=C(Nc1n[nH]c(=S)s1)N[C@@H](Cc1ccccc1)C(=O)NCCCO` [Example 41, α-[[[(4,5-Dihydro-5-thioxo-1,3,4-thiadiazol-2-yl)amino]-carbonyl]amino]-N-(3-hydroxypropyl)-(S)-benzenepropanamide] came in with a Ki of 1120 nM. The Ki values of the last two compounds are within 1.5-fold of each other.
The compound `CCOC(=O)CCNC(=O)[C@H](Cc1ccccc1)NC(=O)Nc1n[nH]c(=S)s1` [Example 42, N-[[(4,5-Dihydro-5-thioxo-1,3,4-thiadiazol-2-yl)amino]carbonyl]-L-phenylalanyl-β-alanine ethyl ester] gave a Ki of 780 nM. This Ki and that of the compound before are within 1.5-fold of each other.
As for `CNC(=O)CCNC(=O)[C@H](Cc1ccccc1)NC(=O)Nc1n[nH]c(=S)s1` [Example 43], the figure is 1340 nM.
As to `O=C(O)CCNC(=O)[C@H](Cc1ccccc1)NC(=O)Nc1n[nH]c(=S)s1` [Example 44], the Ki was determined as 1080 nM.
Regarding `COC(=O)[C@H](CO[Si](C)(C)C(C)(C)C)NC(=O)Nc1n[nH]c(=S)s1` [Example 45, N-[[(4,5-Dihydro-5-thioxo-1,3,4-thiadiazol-2-yl)amino]carbonyl]-O-[(1,1-dimethylethyl)dimethylsilyl]-L-serine methyl ester], the Ki worked out at 1530 nM. The Ki values of the last two compounds are within 1.5-fold of each other.
`CNC(=O)[C@H](CO[Si](C)(C)C(C)(C)C)NC(=O)Nc1n[nH]c(=S)s1` [Example 46, 2-[[[(4,5-Dihydro-5-thioxo-1,3,4-thiadiazol-2-yl)amino]carbonyl]amino]-3-[(1,1-dimethylethyl)-dimethylsilyloxy]-N-methyl-(S)-propanamide] registered a Ki of 750 nM.
In turn, `COC(=O)[C@H](Cc1ccc(O[Si](C)(C)C(C)(C)C)cc1)NC(=O)Nc1n[nH]c(=S)s1` [Example 47, N-[[(4,5-Dihydro-5-thioxo-1,3,4-thiadiazol-2-yl)amino]carbonyl]-O-[(1,1-dimethylethyl)dimethylsilyl]-L-tyrosine methyl ester] came in with a Ki of 6370 nM.
On to `O=C(Nc1n[nH]c(=S)s1)N[C@@H](Cc1ccccc1)C(=O)NCc1ccc2c(c1)OCO2` [Example 49, α-[[[(4,5-Dihydro-5-thioxo-1,3,4-thiadiazol-2-yl)amino]-carbonyl]amino]-N-(piperonyl)-(S)-benzenepropanamide], for which the affinity, expressed as Ki, was 1000 nM.
The same measure for `O=C(Nc1n[nH]c(=S)s1)N[C@@H](Cc1ccccc1)C(=O)N1CCN(c2ccccc2)CC1` [Example 50, (S)-1-[2-[[[(4,5-Dihydro-5-thioxo-1,3,4-thiadiazol-2-yl)amino]carbonyl]amino]-1-oxo-3-phenylpropyl]-4-phenylpiperazine]: 1680 nM; for `O=C(Nc1n[nH]c(=S)s1)N[C@@H](Cc1ccccc1)C(=O)NCCCc1ccccc1` [Example 51, α-[[[(4,5-Dihydro-5-thioxo-1,3,4-thiadiazol-2-yl)amino]carbonyl]amino]-N-(3-phenylpropyl)-(S)-benzenepropanamide]: 1020 nM.
`O=C(Nc1n[nH]c(=S)s1)N[C@@H](Cc1ccccc1)C(=O)NCc1ccc(C(F)(F)F)cc1` [Example 52, α-[[[(4,5-Dihydro-5-thioxo-1,3,4-thiadiazol-2-yl)amino]carbonyl]-amino]-N-[(4-trifluoromethylphenyl)methyl]-(S)-benzenepropanamide] came in with a Ki of 750 nM.
With `O=C(Nc1n[nH]c(=S)s1)N[C@@H](Cc1ccccc1)C(=O)NCc1ccc([N+](=O)[O-])cc1` [Example 53, α-[[[(4,5-Dihydro-5-thioxo-1,3,4-thiadiazol-2-yl)amino]carbonyl]amino]-N-[(4-nitrophenyl)methyl]-(S)-benzenepropanamide], affinity was put at a Ki of 1310 nM.
`CC(C)(C)c1ccc(CNC(=O)[C@H](Cc2ccccc2)NC(=O)Nc2n[nH]c(=S)s2)cc1` [Example 54, α-[[[(4,5-Dihydro-5-thioxo-1,3,4-thiadiazol-2-yl)amino]-carbonyl]amino]-N-[[4-(1,1-dimethylethyl)phenyl]methyl]-(S)-benzenepropanamide] yielded a Ki of 1740 nM.
On to `O=C(Nc1n[nH]c(=S)s1)N[C@@H](Cc1ccccc1)C(=O)N1CCN(C(c2ccccc2)c2ccccc2)CC1` [Example 55, (S)-1-[2-[[[(4,5-Dihydro-5-thioxo-1,3,4-thiadiazol-2-yl)amino]carbonyl]amino]-1-oxo-3-phenylpropyl]-4-(benzhydryl)piperazine], for which the Ki worked out at 4250 nM.
The same measure for `O=C(Nc1n[nH]c(=S)s1)N[C@@H](Cc1ccccc1)C(=O)N1CCNCC1` [Example 56, (S)-1-[2-[[[(4,5-Dihydro-5-thioxo-1,3,4-thiadiazol-2-yl)amino]carbonyl]amino]-1-oxo-3-phenylpropyl]piperazine trifluoroacetate]: 5270 nM.
For the compound `O=C(Nc1n[nH]c(=S)s1)N[C@@H](Cc1ccccc1)C(=O)NCc1nc2ccccc2[nH]1` [Example 57, N-(1H-Benzimidazol-2-ylmethyl)-α-[[[(4,5-dihydro-5-thioxo-1,3,4-thiadiazol-2-yl)amino]carbonyl]amino]-(S)-benzenepropanamide], affinity was put at a Ki of 640 nM.
Consider `O=C(Nc1n[nH]c(=S)s1)N[C@@H](Cc1ccccc1)C(=O)NCc1cccc2ccccc12` [Example 58, α-[[[(4,5-Dihydro-5-thioxo-1,3,4-thiadiazol-2-yl)amino]carbonyl]amino)-N-(1-naphthylmethyl)-(S)-benzenepropanamide], for which the Ki was determined as 800 nM.
With `COC(=O)[C@H](Cc1ccc(N)cc1)NC(=O)Nc1n[nH]c(=S)s1` [Example 59, N-[[(4,5-Dihydro-5-thioxo-1,3,4-thiadiazol-2-yl)amino]carbonyl]-L-(4-aminophenyl)alanine methyl ester], the affinity, expressed as Ki, was 2950 nM. This Ki is about 3.7-fold higher than that of the compound before.
Consider `O=C(Nc1n[nH]c(=S)s1)N[C@@H](CC1CCCCC1)C(=O)NCCc1ccccc1` [Example 62, α-[[[(4,5-Dihydro-5-thioxo-1,3,4-thiadiazol-2-yl)amino]carbonyl]amino]-N-(2-phenylethyl)-(S)-cyclohexanepropanamide], for which the Ki was 650 nM.
On to `COC(=O)[C@H](COCc1ccccc1)NC(=O)Nc1n[nH]c(=S)s1` [Example 63, N-[[(4,5-Dihydro-5-thioxo-1,3,4-thiadiazol-2-yl)amino]carbonyl]-O-(phenylmethyl)-L-serine methyl ester], for which the affinity corresponds to a Ki of 2390 nM. This Ki is about 3.7-fold higher than that of the compound before.
`COC(=O)[C@@H](NC(=O)Nc1n[nH]c(=S)s1)[C@@H](C)OCc1ccccc1` [Example 64, N-[[(4,5-Dihydro-5-thioxo-1,3,4-thiadiazol-2-yl)amino]carbonyl]-O-(phenylmethyl)-L-threonine methyl ester] showed a Ki of 9560 nM.
As for `COC(=O)[C@H](CSCc1ccc(C)cc1)NC(=O)Nc1n[nH]c(=S)s1` [Example 65, N-[[(4,5-Dihydro-5-thioxo-1,3,4-thiadiazol-2-yl)amino]carbonyl]-S-[(4-methylphenyl)methyl]-L-cysteine methyl ester], the figure is 2550 nM.
